This assay concerns the target TRPA1 (Homo sapiens, UniProt O75762). As to the kind of experiment: Synergy of cinnamaldehyde and zinc on pharmacological activity of TRPA1, in vitro. From the text: The trigeminal ingredient may comprise cinnamaldehyde and zinc. The combination provides a minimal flavor impact and is effective to promote a swallowing reflex. Cinnamaldehyde and zinc have a synergy on the pharmacological activity of TRPA1. Using this synergy, the effective amount of cinnamaldehyde can be decreased by supplementing the cinnamaldehyde with small amount of zinc. Consequently, the combination of cinnamaldehyde and zinc can promote a swallowing reflex at concentrations in food that are tolerable both in flavor/taste and in the gastrointestinal tract. Moreover, the synergy only requires a low concentration of zinc (in vitro<1 μM).

Sequence of TRPA1 (O75762 whole entry, species assumed): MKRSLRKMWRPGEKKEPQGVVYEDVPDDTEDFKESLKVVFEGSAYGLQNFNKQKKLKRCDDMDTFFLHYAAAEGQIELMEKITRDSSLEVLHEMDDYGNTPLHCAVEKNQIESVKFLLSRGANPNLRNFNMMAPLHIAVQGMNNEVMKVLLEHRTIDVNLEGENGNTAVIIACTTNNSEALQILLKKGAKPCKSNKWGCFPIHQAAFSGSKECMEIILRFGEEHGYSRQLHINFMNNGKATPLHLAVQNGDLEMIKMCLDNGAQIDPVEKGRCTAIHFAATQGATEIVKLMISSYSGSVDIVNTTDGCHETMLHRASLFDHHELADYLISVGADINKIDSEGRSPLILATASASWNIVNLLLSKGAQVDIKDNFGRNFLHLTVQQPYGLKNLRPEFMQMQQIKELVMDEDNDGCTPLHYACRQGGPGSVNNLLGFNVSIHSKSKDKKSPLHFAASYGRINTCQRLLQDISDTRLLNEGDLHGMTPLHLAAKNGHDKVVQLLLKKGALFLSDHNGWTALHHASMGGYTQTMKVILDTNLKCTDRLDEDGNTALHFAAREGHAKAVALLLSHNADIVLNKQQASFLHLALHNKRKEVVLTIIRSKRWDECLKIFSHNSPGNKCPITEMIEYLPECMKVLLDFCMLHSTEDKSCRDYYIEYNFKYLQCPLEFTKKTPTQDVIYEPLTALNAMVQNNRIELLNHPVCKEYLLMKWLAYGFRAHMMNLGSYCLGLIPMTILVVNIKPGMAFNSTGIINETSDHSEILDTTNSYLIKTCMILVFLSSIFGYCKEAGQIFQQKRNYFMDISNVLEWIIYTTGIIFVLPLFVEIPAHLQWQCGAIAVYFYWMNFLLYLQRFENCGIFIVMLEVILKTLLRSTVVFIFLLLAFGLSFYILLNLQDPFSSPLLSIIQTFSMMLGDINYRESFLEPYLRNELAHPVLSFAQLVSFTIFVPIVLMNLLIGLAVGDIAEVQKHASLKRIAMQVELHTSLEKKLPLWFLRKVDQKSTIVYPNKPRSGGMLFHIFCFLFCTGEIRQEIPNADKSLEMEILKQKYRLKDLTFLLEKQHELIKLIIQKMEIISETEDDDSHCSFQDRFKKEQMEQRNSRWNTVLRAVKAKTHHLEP

Regarding `[Zn]` [zinc], the “zinc concentration required for synergy with cinnamaldehyde” value is below 1 µM.

Values taken from patent US20230270139A1, “COMPOSITIONS TO PROMOTE SWALLOWING SAFETY AND EFFICIENCY” (SOCIETE DES PRODUITS NESTLE S.A., priority 2020, published 2023).
